Experimental data as given in patent US9328374B2, “Selective culture medium and method for detecting carbapenem-resistant bacteria in a test sample” (Institut National de la Sante et de la Recherche Medicale …, priority 2011, dated 2016).

System: K. pneumoniae
Assay: MIC of imipenem, ertapenem and meropenem
Assay type: cell-based, Klebsiella pneumoniae

`C[C@@H](O)[C@H]1C(=O)N2C(C(=O)O)=C(SCCN=CN)C[C@H]12` [IPM, imipenem] gave an MIC (K. pneumoniae GES, KPC-2 + TEM-1 + SHV-11) of 6 µg/mL, an MIC (K. pneumoniae HOL (OXA-181 + CTX-M-15)) of 1 µg/mL and an MIC (K. pneumoniae HOL, OXA-181 + CTX-M-15) of 1 µg/mL. The MIC (K. pneumoniae HPA, OXA-48 + TEM-1 + CTX-M-15 + OXA-1) was 1.5 µg/mL, the MIC (K. pneumoniae IND (NDM-1 + OXA-1 + CTX-M-15)) was 1 µg/mL and the MIC (K. pneumoniae KAM, KPC-3 + TEM-1 + SHV-11) was 8 µg/mL. The MIC (K. pneumoniae KDH (DHA-2)) was 0.12 µg/mL, the MIC (K. pneumoniae KDH, DHA-2, non-carbapenemase producer, overexpressed AmpC) was 0.12 µg/mL and the MIC (K. pneumoniae KI2, NDM-1 + CTX-M-15 + OXA-1) was 1 µg/mL. It also gave an MIC (K. pneumoniae KIE, NDM-1 + SHV-38 + CMY-16 + OXA-10) of 0.75 µg/mL, an MIC (K. pneumoniae KPN (CTX-M-15)) of 0.12 µg/mL and an MIC (K. pneumoniae KPN, CTX-M-15, non-carbapenemase producer) of 0.12 µg/mL. The MIC (K. pneumoniae LEG (CTX-M-15 + TEM-1 + SHV-12)) was 0.75 µg/mL, the MIC (K. pneumoniae LEG, CTX-M-15 + TEM-1 + SHV-12, non-carbapenemase producer, porin deficiency) was 0.75 µg/mL and the MIC (K. pneumoniae LIB (OXA-48)) was >32 µg/mL. For the same compound, the MIC (K. pneumoniae LIB, OXA-48) was 16 µg/mL, the MIC (K. pneumoniae LIE, KPC-2 + TEM-2 + OXA-9) was >32 µg/mL and the MIC (K. pneumoniae LOU, OXA-48) was 4 µg/mL. For the same compound, the MIC (K. pneumoniae MAD (VIM-1 + CTX-M-3)) was 1 µg/mL, the MIC (K. pneumoniae MAD, VIM-1+ CTX-M-3) was 1 µg/mL and the MIC (K. pneumoniae MEK (CTX-M-15 + SHV-11)) was 1.5 µg/mL. It also gave an MIC (K. pneumoniae MEK, CTX-M-15 + SHV-11, non-carbapenemase producer, porin deficiency) of 1.5 µg/mL, an MIC (K. pneumoniae MUS (KPC-2 + TEM-1 + SHV-11 + SHV-12)) of 0.75 µg/mL and an MIC (K. pneumoniae MUS, KPC-2 + TEM-1 + SHV-11 + SHV-12) of 0.75 µg/mL. The MIC (K. pneumoniae OM2 (NDM-1 + TEM-1 + CTX-M-3 + SHV-11 + OXA-1)) was 0.75 µg/mL, the MIC (K. pneumoniae OM2, NDM-1 + TEM-1 + CTX-M-3 + SHV-11 + OXA-1) was 0.75 µg/mL and the MIC (K. pneumoniae OM4, NDM-1 + TEM-1 + CTX-M-15 + SHV-12 + OXA-9) was 4 µg/mL. The MIC (K. pneumoniae OM8, NDM-1 + TEM-1 + CTX-M-15 + SHV-11 + OXA-1) was 2 µg/mL, the MIC (K. pneumoniae OM11, OXA-48 + TEM-1 + CTX-M-14) was 0.5 µg/mL and the MIC (K. pneumoniae OM13, NDM-1 + TEM-1 + CTX-M-15 + SHV-28 + OXA-1 + OXA-9) was 3 µg/mL. The MIC (K. pneumoniae OM14, OXA-48 + TEM-1) was 0.5 µg/mL, the MIC (K. pneumoniae OM15, NDM-1 + CTX-M-15 + SHV-130 + OXA-1) was 1.5 µg/mL and the MIC (K. pneumoniae OM16, NDM-1 + CTX-M-15 + OXA-1 + OXA-181) was 8 µg/mL. It also gave an MIC (K. pneumoniae OM19, NDM-1 + CTX-M-15 + SHV-12 + OXA-1) of 4 µg/mL, an MIC (K. pneumoniae OMA419 (NDM-1 + OXA-1)) of 1.5 µg/mL and an MIC (K. pneumoniae OMA419, NDM-1 + OXA-1) of 1.5 µg/mL. For the same compound, the MIC (K. pneumoniae OMA601, NDM-1 + CTX-M-15 + OXA-1 + OXA-9) was >32 µg/mL, the MIC (K. pneumoniae OMA (OXA-181 + CTX-M-15 + OXA-1)) was 0.5 µg/mL and the MIC (K. pneumoniae OMA, OXA-181 + CTXM-15 + OXA-1) was 0.5 µg/mL. The MIC (K. pneumoniae RAM (OXA-48)) was 1 µg/mL, the MIC (K. pneumoniae RAM, OXA-48) was 1 µg/mL and the MIC (K. pneumoniae ROB (OXA-48 + CTX-M-15 + TEM-1)) was 0.38 µg/mL. It also gave an MIC (K. pneumoniae ROU (OXA-48 + CTX-M-15)) of 0.5 µg/mL, an MIC (K. pneumoniae ROU, OXA-48 + CTX-M-15) of 0.5 µg/mL and an MIC (K. pneumoniae SCO (OXA-48)) of 0.5 µg/mL. For the same compound, the MIC (K. pneumoniae SCO, OXA-48) was 0.5 µg/mL, the MIC (K. pneumoniae SHI (CTX-M-15 + TEM-1 + SHV-1)) was 0.25 µg/mL and the MIC (K. pneumoniae SHI, CTX-M-15 + TEM-1 + SHV-11, non-carbapenemase producer, porin deficiency) was 0.25 µg/mL. The MIC (K. pneumoniae SHM (CTX-M-15 + TEM-1 + SHV-11)) was 3 µg/mL, the MIC (K. pneumoniae SHM, CTX-M-15 + TEM-1 + SHV-11, non-carbapenemase producer, porin deficiency) was 3 µg/mL and the MIC (K. pneumoniae SIC (OXA-48 + CTX-M-15 + SHV-28)) was 0.25 µg/mL. The MIC (K. pneumoniae SIC, OXA-48 + CTX-M-15 + SHV-28) was 0.25 µg/mL, the MIC (K. pneumoniae SIM (CTX-M-15 + TEM-1 + SHV-1)) was 8 µg/mL and the MIC (K. pneumoniae SIM, CTX-M-15 + TEM-1 + SHV-1, non-carbapenemase producer, porin deficiency) was 8 µg/mL. The MIC (K. pneumoniae TAW, IMP-8 + SHV-12) was 0.5 µg/mL, the MIC (K. pneumoniae TIK, OXA-48) was 0.75 µg/mL and the MIC (K. pneumoniae TUR (IMP-1)) was 1 µg/mL. For the same compound, the MIC (K. pneumoniae TUR, IMP-1) was 1 µg/mL, the MIC (K. pneumoniae TWA, IMP-8) was 1 µg/mL and the MIC (K. pneumoniae UK (NDM-1 + CTX-M-15 + CMY-4 + OXA-1)) was >32 µg/mL. For the same compound, the MIC (K. pneumoniae UK, NDM-1 + CTX-M-15 + CMY-4 + OXA-1) was >32 µg/mL, the MIC (K. pneumoniae VER, OXA-48 + TEM-1 + CTX-M-15 + SHV-11) was 0.38 µg/mL and the MIC (K. pneumoniae VSG (OXA-48 + TEM-1 + CTX-M-15 + OXA-1)) was 0.75 µg/mL. It also gave an MIC (K. pneumoniae VSG, OXA-48 + TEM-1 + CTX-M-15 + OXA-1) of 0.75 µg/mL, an MIC (K. pneumoniae YC, KPC-2 + TEM-1 + SHV-11 + SHV-12 + OXA-9) of 4 µg/mL and an MIC (strain K. pneumoniae 7725, SHV-1, non-carbapenemase producer) of 0.19 µg/mL. It also gave an MIC (strain K. pneumoniae 648236, SHV-2a, non-carbapenemase producer) of 0.25 µg/mL, an MIC (strain K. pneumoniae ALE, CTX-M-15 + SHV-1, non-carbapenemase producer) of 1 µg/mL and an MIC (strain K. pneumoniae AMS, OXA-48 + TEM-1 + CTX-M-15 + OXA-1) of 0.5 µg/mL. The MIC (strain K. pneumoniae BAJ, OXA-48 + TEM-1 + CTX-M-15 + SHV-28) was 0.5 µg/mL, the MIC (strain K. pneumoniae BED, CTX-M-15 + TEM-1 + SHV-11, non-carbapenemase producer) was 1.5 µg/mL and the MIC (strain K. pneumoniae BEL, OXA-48) was 1 µg/mL. It also gave an MIC (strain K. pneumoniae BEN, OXA-48 + TEM-1 + CTX-M-15 + SHV-28) of 0.38 µg/mL, an MIC (strain K. pneumoniae BER, SHV-28 + TEM-1, non-carbapenemase producer) of 1 µg/mL and an MIC (strain K. pneumoniae ELK, OXA-48 + TEM-1 + CTX-M-15 + SHV-11) of 0.5 µg/mL. The MIC (strain K. pneumoniae HOL, OXA-181 + CTX-M-15) was 1 µg/mL, the MIC (strain K. pneumoniae MUS, KPC-2 + TEM-1 + SHV-11 + SHV-12) was 0.75 µg/mL and the MIC (strain K. pneumoniae OM2, NDM-1 + TEM-1 + CTX-M-3 + SHV-11 + OXA-1) was 0.75 µg/mL. It also gave an MIC (strain K. pneumoniae OMA419, NDM-1 + OXA-1) of 1.5 µg/mL, an MIC (strain K. pneumoniae OMA, OXA-181 + CTXM-15 + OXA-1) of 0.5 µg/mL and an MIC (strain K. pneumoniae ROU, OXA-48 + CTX-M-15) of 0.5 µg/mL. The MIC (strain K. pneumoniae SCO, OXA-48) was 0.5 µg/mL, the MIC (strain K. pneumoniae SIC, OXA-48 + CTX-M-15 + SHV-28) was 0.25 µg/mL and the MIC (strain K. pneumoniae VSG, OXA-48 + TEM-1 + CTX-M-15 + OXA-1) was 0.75 µg/mL.
